Assay results from ChEMBL document CHEMBL6071155, “Discovery of selective Orai channel blockers bearing an indazole or a pyrazole scaffold” (Eur J Med Chem, 2024).
The source made the active and inactive calls. The calls are words filed in the database; no cut-off is given here.

Experiments:
Jurkat T = assay: Inhibition of NFAT (unknown origin) activation transfected in human Jurkat T cells expressing firefly luciferase gene at 10 uM preincubated with compound for 30 mins followed by PMA/ionomysin addition and measured after 18 hrs by luminometer relative to control; type: cell-based; details: time 18.5 hrs
[1] = molecular target: Transient receptor potential cation channel subfamily M member 4 (Homo sapiens) (UniProt Q8TD43); assay: Activation of GFP-tagged human TRPM4 transfected in HEK293 cells at 10 uM by patch clamp electrophysiology; type: cell-based; details: filed as opener
Transient receptor potential cation channel subfamily M member 4 (Homo sapiens), sequence (Q8TD43 whole entry): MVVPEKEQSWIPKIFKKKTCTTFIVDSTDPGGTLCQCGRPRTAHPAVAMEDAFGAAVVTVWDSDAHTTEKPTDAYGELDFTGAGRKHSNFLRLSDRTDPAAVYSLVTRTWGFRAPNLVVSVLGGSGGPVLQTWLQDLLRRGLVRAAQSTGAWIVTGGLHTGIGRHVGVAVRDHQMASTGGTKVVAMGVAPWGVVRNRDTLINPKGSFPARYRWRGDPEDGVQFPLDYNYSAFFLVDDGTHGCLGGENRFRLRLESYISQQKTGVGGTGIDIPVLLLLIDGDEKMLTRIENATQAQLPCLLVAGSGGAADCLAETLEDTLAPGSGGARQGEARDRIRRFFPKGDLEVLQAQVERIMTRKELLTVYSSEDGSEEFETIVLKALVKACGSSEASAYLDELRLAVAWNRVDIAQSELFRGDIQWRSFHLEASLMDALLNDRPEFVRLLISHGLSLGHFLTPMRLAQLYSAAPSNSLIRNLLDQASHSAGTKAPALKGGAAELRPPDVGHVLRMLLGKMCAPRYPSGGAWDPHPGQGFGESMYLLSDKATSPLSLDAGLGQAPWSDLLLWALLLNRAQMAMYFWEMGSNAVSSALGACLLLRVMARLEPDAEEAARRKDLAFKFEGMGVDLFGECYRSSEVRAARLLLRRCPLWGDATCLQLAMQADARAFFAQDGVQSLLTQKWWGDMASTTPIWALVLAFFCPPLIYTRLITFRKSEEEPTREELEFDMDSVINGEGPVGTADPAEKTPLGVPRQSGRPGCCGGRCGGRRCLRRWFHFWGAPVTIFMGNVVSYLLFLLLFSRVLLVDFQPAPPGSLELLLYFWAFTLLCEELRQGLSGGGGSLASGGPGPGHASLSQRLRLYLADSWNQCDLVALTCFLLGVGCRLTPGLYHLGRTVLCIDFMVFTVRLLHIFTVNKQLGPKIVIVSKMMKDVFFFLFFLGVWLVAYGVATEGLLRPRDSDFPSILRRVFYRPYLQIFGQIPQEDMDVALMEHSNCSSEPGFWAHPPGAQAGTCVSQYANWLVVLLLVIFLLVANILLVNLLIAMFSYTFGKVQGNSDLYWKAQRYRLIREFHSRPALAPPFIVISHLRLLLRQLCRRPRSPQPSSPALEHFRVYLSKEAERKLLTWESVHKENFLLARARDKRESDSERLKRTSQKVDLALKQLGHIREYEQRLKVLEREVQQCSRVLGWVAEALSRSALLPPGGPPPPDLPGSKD

Jurkat [2] = assay: Cytotoxicity against human Jurkat T cells assessed as cell killing at 30 uM incubated for 48 hrs by trypan blue exclusion method relative to control; type: toxicity, cell-based
[3] = test system: Calcium release-activated calcium channel protein 1 (Homo sapiens), Q96D31 [G98S]; assay: Reversible inhibition of myc-tagged human Orai-1 G98S mutant expressed in HEK293 cells assessed as reduction in inward current at 10 uM measured upto 6 mins by patch clamp electrophysiology; type: cell-based
Calcium release-activated calcium channel protein 1 (Homo sapiens), Q96D31 [G98S], sequence (Q96D31 whole entry G98S): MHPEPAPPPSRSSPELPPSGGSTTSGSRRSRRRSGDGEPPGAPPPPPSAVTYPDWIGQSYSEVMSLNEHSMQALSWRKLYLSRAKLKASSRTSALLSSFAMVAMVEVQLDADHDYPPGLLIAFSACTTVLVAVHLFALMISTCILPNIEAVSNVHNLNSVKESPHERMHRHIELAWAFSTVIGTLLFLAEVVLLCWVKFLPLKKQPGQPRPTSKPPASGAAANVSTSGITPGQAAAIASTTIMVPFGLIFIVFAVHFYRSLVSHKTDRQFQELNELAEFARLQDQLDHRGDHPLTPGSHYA

[4] = Inhibition of Store-operated calcium entry (SOCE) in phytohemagglutinin-stimulated human Jurkat T cells at 30 uM in presence of Ca2+ by fura-2 dye based calcium imaging analysis relative to control; type: functional
Jurkat [5] = assay: Cytotoxicity against human Jurkat T cells assessed as decrease in cell viability at 30 uM incubated for 48 hrs by trypan blue exclusion method; type: toxicity, cell-based
[6] = molecular target: Transient receptor potential cation channel subfamily M member 4 (Homo sapiens) (UniProt Q8TD43); assay: Activation of GFP-tagged human TRPM4 transfected in HEK293 cells at 30 uM by patch clamp electrophysiology; type: cell-based
[7] = test system: Calcium release-activated calcium channel protein 1 (Homo sapiens), Q96D31 [G98S]; assay: Inhibition of myc-tagged human orai-1 G98S mutant expressed in HEK293 cells assessed as decrease in inward current at 30 uM by patch clamp electrophysiology technique relative to control; type: cell-based
Jurkat [8] = assay: (§1) Inhibition of Store-operated calcium entry (SOCE) in phytohemagglutinin-stimulated human Jurkat T cells in presence of Ca2+ by fura-2 dye based calcium imaging analysis; type: functional, cell-based
[9] = as §1; type: functional, cell-based
[10] = molecular target: Calcium release-activated calcium channel protein 1 (Homo sapiens, UniProt Q96D31, G98S); assay: (§2) Inhibition of myc-tagged human orai-1 G98S mutant expressed in HEK293 cells assessed as decrease in inward current by patch clamp electrophysiology technique; type: cell-based
Calcium release-activated calcium channel protein 1, sequence (Q96D31 whole entry G98S): as above

[11] = test system: Calcium release-activated calcium channel protein 1 (Homo sapiens), Q96D31 [G98S]; assay: as §2; type: cell-based; details: dose 1-30 µM
[12] = molecular target: Transient receptor potential cation channel subfamily M member 7 (Homo sapiens) (UniProt Q96QT4); assay: Activation of TRPM7 in human Jurkat T cells at 30 uM by patch clamp electrophysiology; type: cell-based
Transient receptor potential cation channel subfamily M member 7 (Homo sapiens), sequence (Q96QT4 whole entry): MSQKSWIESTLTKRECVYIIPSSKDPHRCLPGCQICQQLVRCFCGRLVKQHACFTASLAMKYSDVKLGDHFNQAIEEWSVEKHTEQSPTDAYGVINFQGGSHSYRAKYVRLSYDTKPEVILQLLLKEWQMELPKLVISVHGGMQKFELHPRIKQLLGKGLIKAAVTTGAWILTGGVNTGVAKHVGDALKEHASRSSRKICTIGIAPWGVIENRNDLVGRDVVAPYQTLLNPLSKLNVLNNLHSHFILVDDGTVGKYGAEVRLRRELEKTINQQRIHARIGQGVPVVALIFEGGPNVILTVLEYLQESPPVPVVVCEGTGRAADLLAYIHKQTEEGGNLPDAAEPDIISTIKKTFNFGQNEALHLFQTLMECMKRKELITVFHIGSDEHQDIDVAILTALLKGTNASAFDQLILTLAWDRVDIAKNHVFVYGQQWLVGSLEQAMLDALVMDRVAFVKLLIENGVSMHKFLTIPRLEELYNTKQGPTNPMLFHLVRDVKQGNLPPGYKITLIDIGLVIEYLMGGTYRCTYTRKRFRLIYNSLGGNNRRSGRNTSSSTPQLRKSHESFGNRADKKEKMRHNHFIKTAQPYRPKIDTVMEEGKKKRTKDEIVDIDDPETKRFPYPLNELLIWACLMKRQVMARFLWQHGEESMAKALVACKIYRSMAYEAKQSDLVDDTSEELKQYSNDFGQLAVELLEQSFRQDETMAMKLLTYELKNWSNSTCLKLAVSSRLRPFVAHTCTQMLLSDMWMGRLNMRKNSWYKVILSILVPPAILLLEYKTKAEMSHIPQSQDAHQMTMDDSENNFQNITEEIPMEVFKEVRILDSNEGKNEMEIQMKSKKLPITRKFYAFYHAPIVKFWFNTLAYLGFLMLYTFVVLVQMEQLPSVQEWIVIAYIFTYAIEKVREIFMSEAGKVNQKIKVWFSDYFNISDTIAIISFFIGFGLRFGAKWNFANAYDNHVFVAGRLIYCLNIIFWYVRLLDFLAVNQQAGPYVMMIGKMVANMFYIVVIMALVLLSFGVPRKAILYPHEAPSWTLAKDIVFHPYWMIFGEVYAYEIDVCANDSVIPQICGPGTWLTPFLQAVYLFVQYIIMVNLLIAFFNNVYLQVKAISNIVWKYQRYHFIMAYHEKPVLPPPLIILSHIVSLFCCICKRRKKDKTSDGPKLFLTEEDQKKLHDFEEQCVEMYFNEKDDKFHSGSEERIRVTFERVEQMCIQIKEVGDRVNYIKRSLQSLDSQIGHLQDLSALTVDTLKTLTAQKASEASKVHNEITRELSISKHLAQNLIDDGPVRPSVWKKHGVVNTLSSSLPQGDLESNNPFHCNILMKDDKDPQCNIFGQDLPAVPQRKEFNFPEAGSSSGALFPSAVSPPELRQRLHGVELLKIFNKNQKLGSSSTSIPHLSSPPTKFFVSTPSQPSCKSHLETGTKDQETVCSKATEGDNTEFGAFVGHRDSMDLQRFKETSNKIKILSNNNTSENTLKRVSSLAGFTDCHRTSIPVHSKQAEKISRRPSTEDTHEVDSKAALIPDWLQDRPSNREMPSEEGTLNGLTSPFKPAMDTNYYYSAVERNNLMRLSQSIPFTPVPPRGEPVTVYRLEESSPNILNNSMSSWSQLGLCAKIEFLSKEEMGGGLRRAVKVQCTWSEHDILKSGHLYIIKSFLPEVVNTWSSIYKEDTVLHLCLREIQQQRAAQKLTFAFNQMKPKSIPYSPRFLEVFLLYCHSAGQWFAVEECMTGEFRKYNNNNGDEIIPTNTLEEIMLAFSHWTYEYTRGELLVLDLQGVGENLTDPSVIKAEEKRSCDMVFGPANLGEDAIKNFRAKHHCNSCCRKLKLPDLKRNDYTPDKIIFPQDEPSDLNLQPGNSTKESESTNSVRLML

Structure (SMILES): O=C(Nc1ccncc1F)c1nn(CC2CCC2)c2ccccc12
- inhibition (Jurkat T): 80.5%

Structure (SMILES): O=C(Nc1ccncc1F)c1nn(CC2CC2)c2c1CCC2
- inhibition (Jurkat T): 63.6%

Structure (SMILES): Cc1nnsc1C(=O)Nc1ccc(-n2nc(C(F)(F)F)cc2C(F)(F)F)cc1
- Activity [1]: Active
- Activity (Jurkat [2]): ~ 80%

Structure (SMILES): Cc1cnccc1NC(=O)c1nn(CC2CCC2)c2ccccc12
- inhibition (Jurkat T): 92.4%

Structure (SMILES): Cc1ccc2c(c1)c(C(=O)Nc1ccncc1F)nn2CC1CC1
- inhibition (Jurkat T): 81.9%

Structure (SMILES): O=C(Nc1c(F)cccc1F)c1ccn(CC2CC2)n1
- inhibition (Jurkat T): inactive

Structure (SMILES): O=C(Nc1ccncc1F)c1nn(CC2CC2)c2cc(F)ccc12
- inhibition (Jurkat T): 96.1%

Structure (SMILES): O=C(Nc1c(F)cccc1F)c1nn(CC2CC2)c2c1CCCC2
- inhibition (Jurkat T): 53.9%

Structure (SMILES): O=C(Nc1ccncc1F)c1nn(CC2CC2)c2ccccc12
- inhibition [3]: Active
- inhibition at 30 µM [4]: 100%
- inhibition (Jurkat T): 97.9%
- Activity (Jurkat [5]): Non-Toxic
- Activity [6]: inactive
- inhibition [7]: 100%
- inhibition (Jurkat [8]): Dose-Dependent Effect
- IC50 [9]: 10 µM
- IC50 [10]: 4.9 µM
- inhibition [11]: Dose-Dependent Effect
- Activity [12]: inactive

Structure (SMILES): O=C(Nc1ccncc1F)c1nn(CC2CCCCC2)c2ccccc12
- inhibition (Jurkat T): 88.4%

Structure (SMILES): O=C(Nc1ccncc1F)c1nn(CC2CC2)c2c(F)cccc12
- inhibition (Jurkat T): 48.5%

Structure (SMILES): Cc1cnccc1NC(=O)c1nn(CC2CC2)c2ccccc12
- inhibition (Jurkat T): 86.9%

Structure (SMILES): O=C(Nc1ccncc1F)c1nn(CC2CC2)c2ccc(F)cc12
- inhibition (Jurkat T): 77.3%

Structure (SMILES): Cc1cnccc1NC(=O)c1nn(CC2CC2)c2c1CCC2
- inhibition (Jurkat T): 55.5%

Structure (SMILES): O=C(Nc1ccncc1F)c1nn(CC2CC2)c2c1CCCC2
- inhibition (Jurkat T): 87.3%

Structure (SMILES): Cc1cnccc1NC(=O)c1nn(CC2CC2)c2c1CCCC2
- inhibition (Jurkat T): 88.7%

Structure (SMILES): O=C(Nc1ccncc1F)c1nn(CC2CC2)c2cc(Cl)ccc12
- inhibition (Jurkat T): 51.9%

Structure (SMILES): Cc1cnccc1NC(=O)c1nn(CC2CCC2)c2c1CCCC2
- inhibition (Jurkat T): 92.6%

Structure (SMILES): O=C(Nc1ccncc1F)c1nn(CC2CC2)c2ccc(Br)cc12
- inhibition (Jurkat T): 58.6%

Structure (SMILES): O=C(Nc1ccncc1F)c1nn(CC2CCCC2)c2ccccc12
- inhibition (Jurkat T): 95.4%

Structure (SMILES): O=C(Nc1ccncc1F)c1nn(C(=O)C2CC2)c2ccccc12
- inhibition (Jurkat T): 76.8%

Structure (SMILES): O=C(Nc1ccncc1F)c1nn(CC2CCC2)c2c1CCCC2
- inhibition (Jurkat T): 92.8%

Structure (SMILES): Cc1cnccc1NC(=O)c1ccn(CC2CC2)n1
- inhibition (Jurkat T): 61.3%

Structure (SMILES): O=C(Nc1ccncc1F)c1ccn(CC2CC2)n1
- inhibition (Jurkat T): 60.2%

Structure (SMILES): O=C(Nc1ccncc1F)c1nn(CC2CC2)c2ncccc12
- inhibition [3]: Active
- inhibition (Jurkat T): 64.6%
